Assays:
NMDAR [1] = assay: Ca2+ imaging of hippocampal brain slices, NMDA+glycine application (NMDA reaction), HFD-fed mice; assay type: cell-based, mouse; conditions: slices of HFD-fed mice given PER 5 mg/kg/day orally, 50 μM NMDA + 10 μM glycine, N=5
[2] = Body weight monitoring of HFD-fed mice; assay type: in vivo, mouse
Protocol: Male C57BL/6J background and ob/ob mice were obtained from CLEA Japan Inc. and Japan SLC, respectively (3). The reason why male mice were selected is that it has been reported that male mice are susceptible to HFD, such as weight gain, metabolic changes, and disorder of learning and hippocampal synaptic plasticity. These animals were housed 3 to 4 per cage in a standard 12 hour dark-light cycle room at 25° C. in an environment with freely available food and water. All animal experiments were performed in accordance with the guidelines of the Animal Experiment Ethics Committee of the University of the Ryukyus. Time series changes in average food intake and average body weight were monitored in each condition.
Post-weaning (6 weeks) food intake and body weight of mice maintained on control diet (CD), high-fat diet (HFD), or HFD containing PER (Fycompa (trademark), Eisai, Japan) (5 mg/kg/day) was monitored up to 18 w (FIGS. 2, E and F). […]
Mice were then split into an HFD-fed group (n=5) and a PER-containing HFD-fed group (n=5) under the condition of the same feeding amount (refer to lower Panel of FIG. 25) and their body weights monitored.

[3] = tested on: calcium-permeable AMPA receptor; assay: Ca2+ imaging of hippocampal slices of Alzheimer's disease model mice (NL, NLGF); assay type: cell-based, mouse; conditions: Alzheimer's disease model (NL and NLGF) mice fed CD
HFD mice = assay: Golgi staining of hippocampus, HFD mice; assay type: in vivo, mouse; conditions: HFD mice with PER
From the text: Coronal sections of mouse brains from Bregma −0.94 mm to Bregma −4.04 mm (5 mm wide, including the entire hippocampus from dorsal to ventral, medial to lateral) were fixed with 4% paraformaldehyde for 2 days, and then stained with the Golgi Cox staining system (FD Rapid GolgiStain™ Kit, MD 21041, USA). The impregnated tissues were cut into 100 μm sections and counterstained with crystal violet, and the total number of 15 μm spines on the apical dendrites of CA1 and DG and the percentage of morphologic spines (thin, stubby, mushroom) were examined using an Axio Observer Z1 (Carl Zeiss, Germany). Another set of paraformaldehyde-fixed 5 mm wide coronal sections of the brain, including the entire hippocampus, were processed using the passive CLARITY technique (PACT) (62) and examined through Lightsheet Z.1 (Carl Zeiss, Germany) using a 10× clear objective lens, and 3D images of Thy1-YFPH transgenic mice (the Jackson Laboratory, stock number: 003709, strain name: B6.Cg-Tg.(Thy1-YFP)16Jrs/J) (63, 64), HFD-fed mice, and whole hippocampus of the HFD-fed mice with PER treatment. were acquired respectively. Maximum intensity projection images were acquired along the Z dimension, time dimension, and channel dimension to create an output image with the pixel containing the maximum value for all images in the stack at a particular pixel position. […]

AMPAR (CP-AMPAR) = assay: Ca2+ imaging of hippocampal brain slices, AMPA+CTZ application (CP-AMPA reaction), HFD-fed mice; assay type: cell-based; conditions: slices of HFD-fed mice given PER 5 mg/kg/day orally, 100 μM AMPA + 100 μM CTZ, N=5
Protocol: First, the intracellular calcium concentration ([Ca^2+]i) was directly measured in an acute brain slice of the hippocampus having a perihippocampal region using a mouse obesity model associated with HFD feeding (composition of diet (7) shown in Table 1) for 12 weeks after weaning to track calcium signaling (FIG. 1A: supplementary data moving image 1) in the hippocampus. HFD-fed mice received […] containing 100 μM CTZ (cyclothiazide; […]) applied to EC (entorhinal cortex), CA1 (cornu ammonis 1), CA2, CA3, and DG (dentate gyrus). The F525 normalized before and after application was compared.

NMDAR [4] = assay: Ca2+ imaging of hippocampal brain slices, NMDA+glycine application, ob/ob mice; conditions: ob/ob mice, PER administration; p<0.05

With `N#Cc1ccccc1-c1cc(-c2ccccn2)cn(-c2ccccc2)c1=O` [PER, 3-(2-cyanophenyl)-5-(2-pyridyl)-1-phenyl-1,2-dihydropyridine-2-one] the “NMDA reaction CA1 (maximum value of NF525)” value (NMDAR [1]; CA1) was 1.20 ± 0.08 (N = 5), the “NMDA reaction CA2 (maximum value of NF525)” value (NMDAR [1]; CA2) was 1.20 ± 0.09 (N = 5) and the “NMDA reaction CA3 (maximum value of NF525)” value (NMDAR [1]; CA3) was 1.12 ± 0.04 (N = 5). The “NMDA reaction DG (maximum value of NF525)” value (NMDAR [1]; DG) was 1.17 ± 0.04 (N = 5), the “NMDA reaction EC (maximum value of NF525)” value (NMDAR [1]; EC) was 1.16 ± 0.06 (N = 5) and the “body weight of HFD-fed mice” value ([2]; HFD containing PER 5 mg/kg/day from 6 weeks, effect started from 16 w compared to HFD) was “significant inhibition”. The “body weight under the condition of the same feeding amount” value ([2]; PER-containing HFD-fed group n=5 vs HFD-fed group n=5) was “significant body weight loss”, the “inhibition of NMDAR by the calcium-permeable AMPA receptor” value [3] was “can be eliminated” and the “spine maturity in DG” value (HFD mice) was “immature spines became mature”. The “CP-AMPA reaction CA1 (maximum value of NF525)” value (AMPAR (CP-AMPAR); CA1) was 1.00 ± 0.01 (N = 5), the “CP-AMPA reaction CA2 (maximum value of NF525)” value (AMPAR (CP-AMPAR); CA2) was 1.00 ± 0.02 (N = 5) and the “CP-AMPA reaction CA3 (maximum value of NF525)” value (AMPAR (CP-AMPAR); CA3) was 1.00 ± 0.01 (N = 5). The “CP-AMPA reaction DG (maximum value of NF525)” value (AMPAR (CP-AMPAR); DG) was 1.02 ± 0.01 (N = 5), the “CP-AMPA reaction EC (maximum value of NF525)” value (AMPAR (CP-AMPAR); EC) was 1.05 ± 0.05 (N = 5) and the “NMDAR function in all hippocampal subregions” value (NMDAR [4]) was “restoration”.
